Data from ChEMBL document CHEMBL4145540 (Eur J Med Chem, 2018).
Active and inactive are the calls of the source. The calls are words filed in the database; no cut-off is given here.

Tests used:
HeLa = experiment: Antiproliferative activity against human HeLa cells after 2 days by MTT assay; type: functional, cell-based; settings: 48 h
A549 [1] = experiment: Cell cycle arrest in human A549 cells assessed as accumulation at sub-G0 phase at 750 nM after 20 hrs by propidium iodide staining based flow cytometry (reference value: 6.6 +/- 0.1%); type: functional
A549 [2] = experiment: Cell cycle arrest in human A549 cells assessed as accumulation at G0/G1 phase at 750 nM after 20 hrs by propidium iodide staining based flow cytometry (reference value: 66 +/- 1%); type: functional
A549 [3] = experiment: Antiproliferative activity against human A549 cells after 2 days by MTT assay; type: functional, cell-based; settings: A549, 48 h
MDA-MB-231 [4] = experiment: Antiproliferative activity against human MDA-MB-231 cells after 3 days by coulter counting method; type: functional, cell-based; settings: MDA-MB-231, 72 h
HMEC-1 [5] = experiment: Antiproliferative activity against HMEC1 cells after 2 days by MTT assay; type: functional, cell-based; settings: Homo sapiens, HMEC-1, 48 h
A549 [6] = experiment: Cell cycle arrest in human A549 cells assessed as accumulation at G2/M phase at 750 nM after 20 hrs by propidium iodide staining based flow cytometry (reference value: 11 +/- 1%); type: functional
HT-29 = experiment: Antiproliferative activity against human HT-29 cells after 2 days by MTT assay; type: functional, cell-based; settings: HT-29, 48 h
A549 [7] = experiment: Cell cycle arrest in human A549 cells assessed as accumulation at S phase at 750 nM after 20 hrs by propidium iodide staining based flow cytometry (reference value: 16 +/- 1%); type: functional
HL-60 = experiment: Antiproliferative activity against human HL60 cells after 2 days by MTT assay; type: functional, cell-based; settings: HL-60, 48 h
MCF7 = experiment: Antiproliferative activity against human MCF7 cells after 2 days by MTT assay; type: functional, cell-based; settings: MCF7, 48 h
HEK293 = experiment: Antiproliferative activity against HEK293 cells after 2 days by MTT assay; type: cell-based; settings: Homo sapiens, HEK293, 48 h
A549 [8] = experiment: Cell cycle arrest in human A549 cells assessed as accumulation at sub-G0 phase at 230 nM after 20 hrs by propidium iodide staining based flow cytometry (reference value: 6.6 +/- 0.1%); type: functional
A549 [9] = experiment: Cell cycle arrest in human A549 cells assessed as accumulation at G2/M phase at 230 nM after 20 hrs by propidium iodide staining based flow cytometry (reference value: 11 +/- 1%); type: functional
A549 [10] = experiment: Cell cycle arrest in human A549 cells assessed as accumulation at G0/G1 phase at 230 nM after 20 hrs by propidium iodide staining based flow cytometry (reference value: 66 +/- 1%); type: functional
A549 [11] = experiment: Cell cycle arrest in human A549 cells assessed as accumulation at S phase at 230 nM after 20 hrs by propidium iodide staining based flow cytometry (reference value: 16 +/- 1%); type: functional
A549 [12] = experiment: Cell cycle arrest in human A549 cells assessed as accumulation at sub-G0 phase at 2000 nM after 20 hrs by propidium iodide staining based flow cytometry (reference value: 6.6 +/- 0.1%); type: functional
A549 [13] = experiment: Cell cycle arrest in human A549 cells assessed as accumulation at G0/G1 phase at 2000 nM after 20 hrs by propidium iodide staining based flow cytometry (reference value: 66 +/- 1%); type: functional
A549 [14] = experiment: Cell cycle arrest in human A549 cells assessed as accumulation at G2/M phase at 2000 nM after 20 hrs by propidium iodide staining based flow cytometry (reference value: 11 +/- 1%); type: functional
MDA-MB-231 [15] = experiment: Inhibition of EBI binding to beta-tubulin colchicine binding site in human MDA-MB-231 cells at 100 uM preincubated for 16 hrs followed by EBI addition and measured after 1.5 hrs by Western blot analysis; type: cell-based
A549 [16] = experiment: Cell cycle arrest in human A549 cells assessed as accumulation at G2/M phase at 1500 nM after 20 hrs by propidium iodide staining based flow cytometry (reference value: 11 +/- 1%); type: functional
A549 [17] = experiment: Cell cycle arrest in human A549 cells assessed as accumulation at G0/G1 phase at 1500 nM after 20 hrs by propidium iodide staining based flow cytometry (reference value: 66 +/- 1%); type: functional
A549 [18] = experiment: Cell cycle arrest in human A549 cells assessed as accumulation at S phase at 1500 nM after 20 hrs by propidium iodide staining based flow cytometry (reference value: 16 +/- 1%); type: functional
A549 [19] = experiment: Cell cycle arrest in human A549 cells assessed as accumulation at sub-G0 phase at 1500 nM after 20 hrs by propidium iodide staining based flow cytometry (reference value: 6.6 +/- 0.1%); type: functional
HMEC-1 [20] = experiment: Vascular disruptive activity in HMEC1 cells assessed as disruption of preformed tubular networks after 4 hrs by matrigel based assay; type: functional, cell-based; settings: Homo sapiens
A549 [21] = experiment: Cell cycle arrest in human A549 cells assessed as accumulation at G0/G1 phase at 650 nM after 20 hrs by propidium iodide staining based flow cytometry (reference value: 66 +/- 1%); type: functional
A549 [22] = experiment: Cell cycle arrest in human A549 cells assessed as accumulation at sub-G0 phase at 650 nM after 20 hrs by propidium iodide staining based flow cytometry (reference value: 6.6 +/- 0.1%); type: functional
A549 [23] = experiment: Cell cycle arrest in human A549 cells assessed as accumulation at G2/M phase at 650 nM after 20 hrs by propidium iodide staining based flow cytometry (reference value: 11 +/- 1%); type: functional
A549 [24] = experiment: Cell cycle arrest in human A549 cells assessed as accumulation at S phase at 650 nM after 20 hrs by propidium iodide staining based flow cytometry (reference value: 16 +/- 1%); type: functional

Row | SMILES | IC50 (HeLa) [nM] | IC50 (A549 [3]) [nM] | IC50 (MDA-MB-231 [4]) [nM] | IC50 (HMEC-1 [5]) [nM] | IC50 (HT-29) [nM] | IC50 (HL-60) [nM] | IC50 (MCF7) [nM] | IC50 (HEK293) [nM] | other results
1 | COc1ccc(/C=C\c2cc(OC)c(OC)c(OC)c2)cc1NC(=O)Oc1ccc(C)cc1 | 370 | 1500 | 14 | 160 | 270 | 52 | 200 | 144 | Activity (A549 [1]): 27%; Activity (A549 [2]): 24%; Activity (A549 [6]): 32%; Activity (A549 [7]): 16%
2 | COc1ccc(/C=C\c2cc(OC)c(OC)c(OC)c2)cc1NC(=O)Oc1ccccc1C | 50 | 460 | 21 | 55 | 160 | 222 | 380 | 60 | Activity (A549 [8]): 16%; Activity (A549 [9]): 40%; Activity (A549 [10]): 31%; Activity (A549 [11]): 13%
3 | COc1ccc(/C=C\c2cc(OC)c(OC)c(OC)c2)cc1NC(=O)Oc1c(C)cccc1C | 320 | 3900 | 76 | 380 | 600 | 470 | 440 | 490 | Activity (A549 [12]): 23%; Activity (A549 [13]): 25%; Activity (A549 [14]): 35%
4 | COc1ccc(/C=C\c2cc(OC)c(OC)c(OC)c2)cc1NC(=O)Oc1ccccc1OC | 348 | 3000 | > 100 | 400 | 290 | 350 | 230 | 160 | inhibition (MDA-MB-231 [15]): Active; Activity (A549 [16]): 43%; Activity (A549 [17]): 29%; Activity (A549 [18]): 12%; Activity (A549 [19]): 17%; Activity (HMEC-1 [20]): Dose-dependent effect
5 | COc1ccc(/C=C\c2cc(OC)c(OC)c(OC)c2)cc1NC(=O)Oc1ccc(C)c(C)c1 | 21 | 1300 | 41 | 130 | 130 | 69 | 170 | 97 | Activity (A549 [21]): 24%; Activity (A549 [22]): 17%; Activity (A549 [23]): 41%; Activity (A549 [24]): 19%
